Laboratory results taken from patent publication US12730111B2, “Systems, methods, and compositions to identify new protein targets of a chemical compound or its derivatives” (priority 2019, dated 2026).

Experiments:
[1] = test system: protein asymmetric dimethylarginine (ADMA) in HeLa cells; assay: Protein ADMA levels in cultured HeLa cells (immunoblot); type: cell-based; settings: for levels of protein ADMA in cell culture: 50 μM, short-term treatment
Experimental: Each group contained the same volume of DMSO and ethanol. After wash with TBS for three times, the cells were lysed with 900 μL RIPA lysis buffer and centrifuged to pellet down the debris. The supernatant was then transferred to a new tube and mixed with equal volume of 2×SDS sample buffer. Ten μL sample solution was for electrophoresis and immunoblotting. The signal of anti-GAPDH was used to adjust the amount of protein loading.
Since Bay 11-7082 inhibited PRMT1 activity in an in vitro assay, we then tested the inhibitory activity of this compound in cultured HeLa cells. The levels of ADMA are regulated by both methylation and demethylation. […] Some proteins of ADMA persisted several days in the absence of PRMT1. […] We also used histone H4R3 asymmetric dimethylation antibody as one kind of pan ADMA antibody (right panel, Supplementary FIG. 5). However, we noticed that the ADMA signals of one or two proteins increased in this experiment possibly due to the compensation activity caused by other PRMT family proteins (39) or disturbance of cell cycle progression affected by other target proteins of Bay 11-7082 (40). It is of interest to note that phenylsulfonyl structure present in Bay 11-7082 is also found in a PRMT1 inhibitor, C-7280948 (41), indicating the Bay 11-7082 could be a good lead compound for developing PRMT1 inhibitors. […] We included another Bay 11-7082 analog, Bay 11-7085 for comparison (42, 43).

recombinant PRMT1 = target: T1, recombinant PRMT1 (Homo sapiens, UniProt Q99873); assay: In vitro PRMT1 activity assay (histone H4 methylation, immunoblot); type: biochemical; settings: for concentration that caused significant inhibition of methylation of histone H4: recombinant PRMT1, histone H4, S-adenosylmethionine; for IC50: three-point curve fit (5, 10, 100 μM), an estimation, read-out: IC50 (PRMT1, histone H4 as substrate)
T1 construct: purchased BPS Bioscience
Excerpt: Three-point IC50 curves may provide an estimation, but certainly not an accurate calculation (data is not shown).

PTPs in HeLa cells = assay: Phosphotyrosine levels in HeLa cells (PTP inhibition, immunoblot); type: cell-based; settings: 10 and 100 μM for 5 min
Experimental: FIG. 4 describes use of anti-PVS in recognition of PVSN and Bay 11-7082 adducts.
We next examined whether anti-PVS antiserum can be used in detection of target proteins probed by PVS analogs such as PVSN and Bay 11-7082. Treatment of PVSN and Bay 11-7082 at concentrations of 10 and 100 μM for 5 min increased the levels of phosphotyrosine modification in HeLa cells, especially Bay 11-7082 at 100 μM (FIG. 4) confirming their effects in PTP inhibition. PVSN-tagged proteins were abundantly recognized by anti-PVS antiserum (FIG. 5A), but only few Bay 11-7082-tagged proteins were detected by the anti-PVS antiserum (FIG. 5B). Therefore, anti-PVS antiserum can be readily used in the detection of proteins modified by PVS and PVSN.

[2] = target: T2, Recombinant glutathione reductase (Homo sapiens, UniProt P00390); assay: In vitro enzyme activity of glutathione reductase; type: biochemical
T2 construct: purchased BioVision
T2 sequence (P00390 44-522): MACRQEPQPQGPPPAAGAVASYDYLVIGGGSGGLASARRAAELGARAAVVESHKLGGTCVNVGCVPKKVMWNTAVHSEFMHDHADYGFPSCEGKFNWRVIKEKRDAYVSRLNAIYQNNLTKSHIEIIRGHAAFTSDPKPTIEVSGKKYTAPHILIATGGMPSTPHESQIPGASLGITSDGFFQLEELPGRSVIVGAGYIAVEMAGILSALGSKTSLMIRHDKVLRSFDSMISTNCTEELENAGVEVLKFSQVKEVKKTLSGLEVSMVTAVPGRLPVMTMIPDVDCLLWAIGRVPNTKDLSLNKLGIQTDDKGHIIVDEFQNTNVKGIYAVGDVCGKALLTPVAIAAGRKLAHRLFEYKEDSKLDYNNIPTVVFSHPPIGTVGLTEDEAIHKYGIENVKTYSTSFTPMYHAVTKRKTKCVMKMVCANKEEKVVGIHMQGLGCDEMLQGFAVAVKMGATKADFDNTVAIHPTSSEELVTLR
Experimental: Recombinant glutathione reductase was first treated with NADPH and 10 or 50 μM PVS, PVSN or Bay 11-7082 for 1 h at room temperature. In the control group, recombinant glutathione reductase was treated with NADPH and the same volume of DMSO used in the treatment of drugs in the assay buffer. Following the addition of oxidized glutathione, the decrease in absorbance at A340 was monitored over 10 min. Results were presented as mean of three independent experiments plus and minus standard deviation.
The assay was carried out according to the protocol provided by BioVision Inc. (Catalog number K761-200). Recombinant glutathione reductase was first treated with NADPH and 10 μM or 50 μM PVS, PVSN or Bay11-7082 for 30 min at room temperature. In the control group, recombinant glutathione reductase was treated with NADPH and the same volume of DMSO used in the treatment of drugs in the assay buffer. Following the addition of oxidized glutathione, the decrease in absorbance at A340 was monitored over 10 min.
Based on the proteomic results, we first examined whether PVS, PVSN and Bay 11-7082 affected the activity of glutathione reductase (FIG. 5). All compounds were ineffective in inhibiting glutathione reductase at 10 μM. However, PVSN and Bay 11-7082 at 50 μM inhibited the activity of glutathione reductase by 61% and 74%, respectively. […]

[3] = test system: PVS tagging of cysteine thiol groups of cellular proteins in HeLa cells; assay: Competition of PVS tagging in HeLa cells or lysate (anti-PVS immunoblot); type: cell-based
Experimental: HeLa cells were treated with 10 μM to 1 mM PVS in PBS for 1 h or with 0.1-2 mM PVD in PBS for 30 min. In the case of PVS and PVD combined treatment, HeLa cells were pretreated with PVD for 30 min and then treated with PVS in PBS for 1 h.
Based on the observations that PVS and PVSN were PTP covalent inhibitors (22), we attempted to develop an antiserum against PVS and use the antiserum in the identification of PVS-tagged proteins through immunoblotting and immunoprecipitation. First, we confirmed the inhibitory activity of PVS on PTPs and tested the efficacy of our antiserum against PVS. […] Higher concentrations of PVS elicited higher levels of PVS modification, but with the same pattern. […] Specificity of the anti-PVS was further tested by the combined treatment of ethyl vinyl sulfone (EVS) and PVS. HeLa cells were pretreated with 10 μM to 1 mM EVS in PBS for 30 min and then treated with 100 μM PVS in PBS for 1 h.
Pervanadate is an irreversible PTP inhibitor by oxidizing the active-site cysteine thiol of PTPs (24). If both PVS and pervanadate target the same thiol group, pretreatment of pervanadate would hinder the tagging of PVS. […] Next, we tested the competition of BVT 948 and NSC 95397 on the tagging of PVS. BVT 948 (25) and NSC 95397 (26) are PTP and dual specificity phosphatase inhibitors, respectively. Treatment of both drugs elicited increased amounts of tyrosine phosphorylation, albeit with different sensitivity and pattern.
HeLa cells were cultured to about 90% confluence on a 10-cm dish in DMEM with 10% FBS (5×10^6~1×10^7 cells). HeLa cells were lysed by repeated pipetting with 900 μL 2% Triton X-100 in 20 mM Tris-HCl, pH 8.0. The lysate was centrifuged at 12,000×g for 10 min and the supernatant was aliquoted (200 μL) and treated with PVS, PVSN, or Bay 11-7082 of various concentrations at room temperature for 5 to 60 min. The stocks of 1000×PVS, 1000×PVSN, and 1000× Bay 11-7082 were prepared in DMSO. The reaction was stopped by adding 1,4-dithioerythreitol to a final concentration of 10 mM. The reaction solution was then mixed with equal volume of 2× SDS sample buffer. Ten μL sample solution was used for SDS gel electrophoresis and immunoblotting. The signal of GAPDH was used to adjust the amount of protein loading.

PC-9 cells = assay: Afatinib labeling of proteins in PC-9 cells (anti-afatinib immunoblot); settings: 1 h
Experimental: The control groups were treated with the same volume of DMSO.

recombinant RRM1 or RRM2 = assay: Competition of afatinib labeling of recombinant RNR subunits; settings: pretreatment 2.5 mM, then 10 μM afatinib

T1 sequence (Q99873 whole entry): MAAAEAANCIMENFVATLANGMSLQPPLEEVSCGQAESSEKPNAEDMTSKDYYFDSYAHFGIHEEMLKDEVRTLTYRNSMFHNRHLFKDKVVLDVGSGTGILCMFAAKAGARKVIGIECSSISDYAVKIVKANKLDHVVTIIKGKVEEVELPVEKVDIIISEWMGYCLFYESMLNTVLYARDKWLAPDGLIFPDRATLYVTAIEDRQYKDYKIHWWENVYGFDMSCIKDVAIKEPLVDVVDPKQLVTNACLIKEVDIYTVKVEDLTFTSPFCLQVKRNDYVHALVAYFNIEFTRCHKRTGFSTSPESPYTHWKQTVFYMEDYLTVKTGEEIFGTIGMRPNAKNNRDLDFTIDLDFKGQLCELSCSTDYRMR

O=C(Nc1ccc2c(O)cc(S(=O)(=O)O)cc2c1)Nc1ccc2c(O)cc(S(=O)(=O)O)cc2c1 [AMI-1]
levels of protein ADMA in cell culture [1]: little effect

Cc1ccc(S(=O)(=O)/C=C/C#N)cc1 [Bay 11-7082]
concentration that caused significant inhibition of methylation of histone H4 (recombinant PRMT1): 2.5 µM | IC50 (recombinant PRMT1): 10.7 µM | levels in ADMA of 25 and 35 kDa ([1]; 3 h): led to decline | levels of phosphotyrosine modification (PTPs in HeLa cells): increased | inhibited the activity of glutathione reductase by ([2]; at 50 μM): 74%

C=CS(=O)(=O)CC [EVS, ethyl vinyl sulfone]
PVS modification ([3]; HeLa cells pretreated at 100 μM and 1 mM for 30 min, then 100 μM PVS 1 h): significantly attenuated

O=C1C(SCCO)=C(SCCO)C(=O)c2ccccc21 [NSC 95397]
blocking of PVS tagging, comparison ([3]; in vitro and in cellulo): blocked PVS tagging better than BVT 948

C=CS(=O)(=O)c1ccccc1 [PVS, Phenyl vinyl sulfone]
concentration that caused significant inhibition of methylation of histone H4 (recombinant PRMT1): 10 µM | IC50 (recombinant PRMT1): 23.3 µM | levels of protein ADMA in cell culture [1]: did not change

C=CS(=O)(=O)Oc1ccccc1 [PVSN, phenyl vinyl sulfonate]
concentration that caused significant inhibition of methylation of histone H4 (recombinant PRMT1): 5 µM | IC50 (recombinant PRMT1): 10.4 µM | levels of protein ADMA in cell culture [1]: decreased the levels of protein ADMA slightly | levels of phosphotyrosine modification (PTPs in HeLa cells): increased | inhibition at 50 µM ([2]; read-out: inhibited the activity of glutathione reductase by): 61%

CN(C)C/C=C/C(=O)Nc1cc2c(Nc3ccc(F)c(Cl)c3)ncnc2cc1O[C@H]1CCOC1 [afatinib]
concentration at which labeling signals were readily observed (PC-9 cells): 1 µM

Nc1ccn([C@@H]2O[C@H](CO)[C@@H](O)C2(F)F)c(=O)n1 [gemcitabine]
afatinib labeling (recombinant RRM1 or RRM2): almost completely blocked

pervanadate
tagging of PVS ([3]; HeLa cell lysate, 1 mM together with 100 μM PVS): almost completely blocked | tagging of PVS ([3]; HeLa cells pretreated with 1 mM for 30 min): completely blocked
